Experiment: gradient 5% acetonitrile 3 min, to 50% in 2 min, to 85% in 15 min, held 3 min, 100 µL/min
Details: column: Zorbax Extend-C18 2.1 x 50 mm; eluents: water / acetonitrile, 0.1% formic acid
Procedure, shortened: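 Pure standards were run in mixtures of ~100 molecules by HPLC coupled to a quadrupole time-of-flight mass spectrometer. The column was a Zorbax Extend-C18 (2.1 × 50 mm, 1.8 μm) at 100 μL/min, with water and acetonitrile each containing 0.1% formic acid, in positive and negative ionization mode. Dead and dwell volumes were 40 μL and 900 μL. Retention time was taken from computationally picked adduct peaks, each manually inspected, with data collected over 3 months.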

First: Cc1nc(-c2csc(S(=O)(=O)N3CCC(C(=O)Nc4ccc(C(C)C)cc4)CC3)c2)no1
Second: CC(=O)Nc1ccc(S(=O)(=O)N2CCN(c3cc(C)c4ccccc4n3)CC2)cc1
The RP-LC retention time of the first is higher: 1090 s for the first, 632 s for the second.

Compared with `CC1(C)CC(=O)c2cc3c(N)c(C(=O)Nc4ccccc4[N+](=O)[O-])sc3nc2C1`, `CCN1C(=O)COc2ccc(-c3nc(NC(=O)c4ccccc4C)sc3C)cc21` is lower in RP-LC retention time: 1100 s for the first, 1010 s for the second.

Compared with `COc1ccc(OC)c(CNC(=O)[C@@H]2[C@H](c3cc(OC)c(OC)c(OC)c3)c3cc4c(cc3[C@H](O)[C@H]2CO)OCO4)c1`, `COc1cccc(CNC(=O)CN2C(=O)NC(c3ccccc3Cl)C3=C2COC3=O)c1OC` (stereo not given) is higher in RP-LC retention time: 721 s for the first, 739 s for the second.

Compared with `Cc1nc(CC(=O)N2CCC(C(N)=O)CC2)cs1`, `CCOC(=O)C1CCN(C(=O)C2CCN(c3nccc(C)n3)CC2)CC1` is higher in RP-LC retention time: 646 s for the first, 662 s for the second.

Compared with `COc1ccc(-c2nnc(-c3cccc(S(=O)(=O)N4CCOCC4)c3)o2)cc1OC`, `COc1ccc(-c2ncc3c(n2)CCN(S(=O)(=O)c2ccc(C)cc2C)C3)cc1` is higher in RP-LC retention time: 813 s for the first, 1140 s for the second.

Going from `Cc1sc2ncnc(N3CCCC(C)C3)c2c1C(=O)Nc1ccc(Cl)cc1F` (stereo not given) to `COc1ccc(NC(=O)C2CCCN(c3nccnc3Sc3ccccc3)C2)cc1F` (stereo not given), the RP-LC retention time falls from 1330 s to 1050 s.

Going from `O=C(CCn1c(N2CCCC2)nc2ccsc2c1=O)N1CCN(c2ccccc2F)CC1` to `O=C(CN1C(=O)CCc2cc(Br)ccc21)N1CCN(c2ccccc2F)CC1`, the RP-LC retention time rises from 849 s to 951 s.

First: Cc1cccc(S(=O)(=O)N2CC3CN(C(=O)c4cnccn4)CC(C2)O3)c1
Second: COC[C@@H]1CN(S(=O)(=O)c2cccc(F)c2)C[C@H]1c1ccccn1
The RP-LC retention time of the first is higher: 688 s for the first, 639 s for the second.

Compared with `CCSc1nnc(-c2nn(C)c3c2CN(S(=O)(=O)c2ccc(C)c(Cl)c2)CC3)n1CC`, `Cc1sc(-c2cc(C(F)(F)F)[nH]n2)cc1S(=O)(=O)N1CCN(c2cccc(Cl)c2)CC1` is higher in RP-LC retention time: 1050 s for the first, 1230 s for the second.

Compared with `O=c1c2sccc2n(Cc2nc(-c3ccc(F)cc3)no2)c(=O)n1-c1ccc(F)cc1`, `COc1ccc(-c2nnc(Cc3nc(-c4ccc(C)c(C)c4)no3)o2)cc1` is higher in RP-LC retention time: 987 s for the first, 1110 s for the second.

First: Cc1nc(-c2cccs2)c(CCC(=O)NC2CCCC2)s1
Second: O=C(NCC1(CO)CC1)NC1CCCCC1
The RP-LC retention time of the first is higher: 773 s for the first, 621 s for the second.

Going from `COCCn1c(C2CCN(C(=O)c3cc(Cl)ccc3OC)C2)nc2ccncc21` (stereo not given) to `COc1cc(OC)c(NC(=O)CSc2nccnc2N2CCSCC2)cc1Cl`, the RP-LC retention time rises from 561 s to 1020 s.

Going from `CCC(=O)N1CCc2cc(N3CC(C(=O)Nc4ccc(C)cc4)CC3=O)ccc21` (stereo not given) to `COc1ccc(NC(=O)N2C[C@@H](F)C[C@H]2C(=O)N2CCc3ccccc3C2)cc1`, the RP-LC retention time falls from 786 s to 763 s.

Compared with `CCOC(=O)C1CCCN(c2ccc3nnc(CCc4nc(-c5ccccc5C)no4)n3n2)C1` (stereo not given), `COc1ccc(OCc2nc(-c3ccc(N4CCCCC4)nc3)no2)cc1` is lower in RP-LC retention time: 1030 s for the first, 1010 s for the second.

Going from `O=C(C1CCCO1)N1CCC(OCc2nc(C3CC3)no2)CC1` (stereo not given) to `O=C(C1CCCO1)N1CCC2(CC1)NCCc1c2[nH]c2ccccc12` (stereo not given), the RP-LC retention time falls from 635 s to 610 s.

Compared with `CC(C)(C)c1nnc(-c2ccc3c(c2)OCO3)o1`, `c1ccc(-c2noc(NCc3ccc4c(c3)OCO4)n2)cc1` is higher in RP-LC retention time: 900 s for the first, 974 s for the second.

First: Cc1cc(C)c(S(=O)(=O)Nc2ccc(Cn3cncn3)cc2)c(C)c1
Second: COc1ccc(-c2csc(NC(=O)Cn3nc(C)cc3C)n2)cc1
The RP-LC retention time of the first is lower: 798 s for the first, 842 s for the second.

First: CCn1c(N2CCCC(C(=O)NCc3ccc(SC)cc3)C2)cc(=O)n(C)c1=O (stereo not given)
Second: CC(C)CCNC(=O)c1ccc2c(c1)NC(=O)C1CCCCN21 (stereo not given)
The RP-LC retention time of the first is lower: 809 s for the first, 813 s for the second.

First: CCOc1ccccc1-c1csc(NC(=O)Cc2csc(-c3ccccc3)n2)n1
Second: COCCN1C(=O)c2cc(-c3ccccc3)nn2CC1(C)C(=O)NCc1ccccc1 (stereo not given)
The RP-LC retention time of the first is higher: 1240 s for the first, 842 s for the second.

First: Cn1cnnc1SCCNC(=O)c1cc(-c2ccc(F)cc2)c[nH]1
Second: CCn1c(C(=O)NCCc2ccccc2)cc2sc(Cl)cc21
The RP-LC retention time of the first is lower: 659 s for the first, 1160 s for the second.

Going from `CCN1C(=O)COc2ccc(-c3nc(NC(=O)c4ccccc4)sc3C)cc21` to `CCn1c(C(=O)NCc2ccc3c(c2)OCO3)cc2c(-c3cccs3)nn(-c3ccccc3)c21`, the RP-LC retention time rises from 1030 s to 1120 s.

Compared with `COC(=O)c1cc2ccsc2n1Cc1ccccc1C#N`, `COCc1cc(=O)n(CC(=O)NCc2ccccc2Cl)c(N)n1` is lower in RP-LC retention time: 1030 s for the first, 619 s for the second.

First: CCS(=O)(=O)N1CCCN(c2ccc(=O)n(-c3ccc(C)cc3)n2)CC1
Second: O=C(Cn1nc(S(=O)(=O)c2cccc(F)c2)ccc1=O)N1CCN(c2ccccc2)CC1
The RP-LC retention time of the first is lower: 751 s for the first, 802 s for the second.

Going from `O=C(Nc1ccc(F)cc1F)N1CCc2nc(-c3ccccc3)ncc2C1` to `Cc1ccc(C(=O)N2C[C@@H](F)C[C@H]2C(=O)N2CCc3ccccc3C2)s1`, the RP-LC retention time falls from 881 s to 800 s.

Compared with `CN1C(=O)c2cc(S(=O)(=O)NCc3ccccc3F)ccc2Oc2cccnc21`, `CCOc1ccc(N(C)S(=O)(=O)c2ccsc2C(=O)NCCCc2ccccc2)cc1` is higher in RP-LC retention time: 871 s for the first, 1210 s for the second.

Compared with `CCCCS(=O)(=O)c1cc2c(cc1NC(=O)c1cccc(F)c1)n(C)c(=O)n2C`, `CCOc1cc(-c2nc(C3CC(=O)N(c4ccc(F)c(Cl)c4)C3)no2)cc(OCC)c1OCC` (stereo not given) is higher in RP-LC retention time: 966 s for the first, 1290 s for the second.

First: CCOCCCNC(=O)N1CCN(c2nc3ccccc3n3cccc23)CC1
Second: Cc1oc2c(C)c3oc(=O)c(CCC(=O)N4CCN(c5ccccn5)CC4)c(C)c3cc2c1C
The RP-LC retention time of the first is lower: 618 s for the first, 728 s for the second.

Going from `Cc1ccc2[nH]cc(CCNC(=O)C3CCN(c4ccc(Cl)cc4)C3=O)c2c1` (stereo not given) to `Cc1oc(C2CCC2)nc1C(=O)NCc1cc(F)ccc1F`, the RP-LC retention time rises from 987 s to 1030 s.

First: O=C(NCCCCCCNC(=O)ON=C1CCCCC1)ON=C1CCCCC1
Second: O=C(NCc1ccccc1)C1CN(S(=O)(=O)c2cccnc2)CC12CCCCC2 (stereo not given)
The RP-LC retention time of the first is higher: 926 s for the first, 864 s for the second.

Compared with `CS(=O)(=O)NC1CCN(C(=O)C2CCCC2)C1` (stereo not given), `Cc1ccc(NC(=O)N2CCC(c3nc(C(=O)N4CCCC4)c(C)o3)CC2)cc1Cl` is higher in RP-LC retention time: 691 s for the first, 895 s for the second.

Going from `O=C(C1=CN(c2ccc3c(c2)CCC3)c2ccccc2S1(=O)=O)N1CCOCC1` to `O=C([C@H]1C[C@@H](F)CN1S(=O)(=O)c1ccc(C(F)(F)F)cc1)N1CCOCC1`, the RP-LC retention time falls from 850 s to 738 s.

First: CCOC(=O)c1ccc(NC2=NS(=O)(=O)C(c3ccc(OC)cc3)=C2C)cc1
Second: COc1ccc(NC(=O)Cc2csc(NC(=O)C3CC3)n2)cc1C
The RP-LC retention time of the first is higher: 928 s for the first, 706 s for the second.

In the case of `O/C(=C\Sc1nnc(COc2ccc(Cl)cc2Cl)o1)c1ccc(F)cc1`, the RP-LC retention time was 915 s.
